“Also recorded” adds a separate entry of the source.
Test system: patients with PH associated with PF (PH-PF)
Assay: Acute escalating doses of pulsed iNO; hemodynamics by right heart catheterization (RHC) in PH-PF patients
Type: in vivo, human
Settings: for Pulmonary arterial compliance (PAC), change from baseline: nine PH-PF patients on oxygen, median change
Experimental: FIG. 1 depicts the study design for acute iNO dose escalation. Nine PH-PF subjects were administered escalating doses of pulsed iNO (iNO30 to iNO75 mcg/kg IBW/hrs) with continuous oxygen.
FIG. 2, comprising FIGS. 2A-2C, are graphs depicting pulmonary arterial compliance, or PAC (FIG. 2A), pulmonary vascular resistance, or PVR (FIG. 2B), and mean pulmonary arterial pressure, or mPAP (FIG. 2C) for inhaled nitric oxide at 30 mcg/kg IBW/hr (iNO30), 45 mcg/kg IBW/hr (iNO45), and 75 mcg/kg IBW/hr (iNO75). The data is based on nine pulmonary hypertension—interstitial lung disease (ILD) patients. Bar graphs represent median change from baseline at each assessment for all available subjects. […] Statistical analysis was based on the Wilcoxon Rank Test.
This study was performed to determine whether increasing doses of pulsed iNO can improve PAC in patients with PH-PF on long-term oxygen therapy with intermediate or high probability of pulmonary hypertension (PH) as determined by echocardiography. Nine patients were acutely challenged with escalating doses of iNO (iNO30, iNO45, and iNO75) over a 90 minute period. Each dose was administered for 10 minutes, with 10 minute “washout” periods between doses. Baseline measurements were taken from timepoint 0-30 minutes. iNO30 was dosed at 30 mcg/kg IBW/hrs from timepoint 30-40 minutes, iNO45 at 45 mcg/kg IBW/hrs from timepoint 50-60 minutes, and iNO75 was dosed at 75 mcg/kg IBW/hrs from timepoint 70-80 minutes (see FIG. 1). The demographics of the patient population is described in Table 1, and Baseline Hemodynamics in Table 2, below.
PAC was derived by stroke volume divided by (SPAP-DPAP) collected during right heart catheterization (RHC). Patients were on sufficient supplemental oxygen at baseline to maintain an SpO2 of at least 92% at rest. Upon completion of the RHC, subjects were offered the opportunity to continue on to chronic iNO therapy in an extension study. 6 minute walk distance (6MWD) was assessed prior to RHC treatment in the extension study.

[1] = all subjects, doses not separated
[2] = iNO30 (30 mcg/kg IBW/hr, pulsed, 10 min), nine PH-PF patients, Wilcoxon Rank Test
[3] = iNO45 (45 mcg/kg IBW/hr, pulsed, 10 min), nine PH-PF patients, Wilcoxon Rank Test
[4] = iNO75 (75 mcg/kg IBW/hr, pulsed, 10 min), nine PH-PF patients, Wilcoxon Rank Test

For `[N]=O` [iNO, nitric oxide], the “PAC on pulsed iNO versus average baseline” value [1] was “increase”, the “PVR on pulsed iNO versus average baseline” value [1] was “reduction; also recorded: statistically and clinically significant improvements” and the “mPAP on pulsed iNO versus average baseline” value [1] was “statistically and clinically significant improvements; also recorded: reduction”. The “PAC on pulsed iNO versus average baseline” value (all subjects, doses not separated, listed as Inhaled NO) was “improves PAC”, the “Pulmonary arterial compliance (PAC), change from baseline” value (iNO30 (30 mcg/kg IBW/hr, pulsed, 10 min), Wilcoxon Rank Test) was “improved with significance” and the “Mean pulmonary arterial pressure (mPAP), change from baseline” value [2] was “statistically significant improvement; also recorded: improved with significance”. The “Pulmonary vascular resistance (PVR), change from baseline” value [2] was “statistically significant improvement; also recorded: improved with significance”, the “Pulmonary arterial compliance (PAC), change from baseline” value (iNO45 (45 mcg/kg IBW/hr, pulsed, 10 min), Wilcoxon Rank Test) was “improved with significance” and the “Mean pulmonary arterial pressure (mPAP), change from baseline” value [3] was “statistically significant improvement; also recorded: improved with significance”. The “Pulmonary vascular resistance (PVR), change from baseline” value [3] was “statistically significant improvement; also recorded: improved with significance”, the “Pulmonary vascular resistance (PVR), further change between iNO30 and iNO45 doses” value (iNO45 versus iNO30, nine PH-PF patients, Wilcoxon Rank Test) was “additional statistically significant improvement; also recorded: further improved with significance” and the “Pulmonary arterial compliance (PAC), change from baseline” value (iNO75 (75 mcg/kg IBW/hr, pulsed, 10 min), Wilcoxon Rank Test) was “improvement in PAC”. For the same compound, the “Mean pulmonary arterial pressure (mPAP), change from baseline” value [4] was “statistically significant improvement; also recorded: improved with significance” and the “Pulmonary vascular resistance (PVR), change from baseline” value [4] was “statistically significant improvement; also recorded: improved with significance”.
